# Experimental data reported in US8524978B2, “Composition for production of plant body having improved sugar content, and use thereof” (Japan Science and Technology Agency, priority 2007, dated 2013).
# Entries after “also recorded” stand apart in the source; their conditions may differ.
# Legend:
# Assay type in all cases: in vivo
# [1] = system: Lycopersicum esculentum; assay: Sugar content determination of Lycopersicum esculentum fruit with refractometer (Example 2); conditions: 0.5 mM applied as in Example 1; compared to Cont and Cont2 Sunny conditions; ANOVA 5%
# Excerpt: Cultivated were Lycopersicum esculentum plants to which GSSG or GSH was applied by the method described in Example 1. Then, obtained fruit of the plants was subjected to sugar content determination using “Pocket” Refractometer APAL-1 (ATAGO CO., LTD.).
# For comparison, Lycopersicum esculentum plants were cultivated under two types of conditions (referred to as “Cont” and “Cont2 Sunny”). In the Cont condition, Lycopersicum esculentum plants were cultivated by the same method as in Example 1, except that GSSG and GSH were not applied. In the Cont2 Sunny condition, a Lycopersicum esculentum plant was not applied with GSSG or GSH and was independently cultivated at a site sufficiently irradiated with sunlight so that illuminance on the Lycopersicum esculentum plant becomes 100%. In the Cont condition and a condition in which GSSG or GSH was applied, the plants were planted at intervals of 40 cm to 50 cm. In this case, a plant may intercept light irradiating another plant. Therefore, illuminance on such plants becomes less than 100%.
# In the condition in which GSSG was applied, the condition in which GSH is applied, and the Cont condition, three Lycopersicum esculentum plants were cultivated, respectively. In the Cont2 Sunny condition, one Lycopersicum esculentum plant was cultivated. […]
# [2] = system: Zea mays L. var. saccharata Sturt; assay: Cultivation of Zea mays L. var. saccharata Sturt with GSSG, sensory test (Example 3); conditions: 50 mL of 0.2 mM, 4 times at root and 4 times sprayed to leaves
# Excerpt: In the present example, Zea mays L. var. saccharata Sturt was cultivated. First, a Zea mays L. var. saccharata Sturt seed (TAKII & CO. Ltd., product number: Canberra 90) was sown in vermiculite (ASAHI INDUSTRIES Co., LTD.). Two weeks after sowing, a Zea mays L. var. saccharata Sturt plant was transplanted to a hydroponic culture pot described in Example 1. To the plant, 3 g of Kumiai phosphorate ammonium nitrate potassium S-604 (Chisso Asahi Fertilizer Co., Ltd.) was applied as an additional fertilizer 4 weeks and 6 weeks after the sowing.
# Within 2 weeks from the 5th week after the sowing, 50 mL of 0.2 mM GSSG was applied 4 times at a root of the plant. Within 2 weeks from the 7th week after the sowing, 50 mL of 0.2 mM GSSG was sprayed 4 times to leaves of the plant. For comparison, a Zea mays L. var. saccharata Sturt plant was cultivated by the same method as in the present example, except that GSSG was not applied, and fruit thereof was harvested.
# Fruit was harvested 90 days after the sowing and subjected to a sensory test of sugar content. As a result, it was determined that fruit of the plant applied with GSSG increased in sugar content compared to that of the plant applied with no GSSG. Further, it was determined that the plant applied with GSSG increased in size and number of fruit.
# [3] = system: Vitis labrusca (Delaware); assay: Cultivation of Vitis labrusca with GSSG or GSH, sensory test (Example 5)
# Description: In the present invention, Vitis labrusca was cultivated. Specifically, immediately after flowering of a Vitis labrusca (Delaware) plant, a mixed solution of 1 mM gibberellin (GA3) and 1 mM of an agent was applied to anthotaxy of the plant. The agent was GSSG or GSH. Then, the plant was coated with the agent and thereafter produced fruit was harvested. For comparison, a Vitis labrusca plant was cultivated in the same way, except that GA3, but not GSSG or GSH, was applied, and fruit thereof was harvested and subjected to a sensory test described below.
# The fruit harvested was subjected to a sensory test of sugar content. As a result, it was determined that fruit of the plant applied with GA3 and GSSG or GSH increased in sugar content compared to that of the plant applied with only GA3. Further, it was determined that the plant applied with GSSG and GA3 increased in size of fruit.
# [4] = system: Prunus avium (Napoleon); assay: Prunus avium leaf coating with GSSG, sensory test of fruit (Example 8); conditions: leaf surface coated with 0.5 mM 4 weeks and 3 weeks before harvest
# Description: In the present example, Prunus avium was cultivated. Specifically, 4 weeks and 3 weeks before an expected date of harvesting Prunus avium (Napoleon) fruit, a surface of a leaf on a branch having the fruit to be harvested was coated with 0.5 mM GSSG. The fruit was harvested on the expected date.
# Next, the fruit harvested was subjected to a sensory test of sugar content. As a result, it was determined that the fruit applied with GSSG increased in sugar content and decreased in acidity. Further, it was determined that the fruit applied with GSSG increased in weight. Furthermore, the fruit obtained was subjected to sugar content determination using “Pocket” Refractometer APAL-1 (ATAGO CO., LTD.). For comparison, fruit applied with no GSSG was also subjected to the sugar content determination. […] In FIG. 5, the vertical scale indicates sugar content (Brix, unit: %).
# [5] = system: Fragaria ananassa; assay: Cultivation of Fragaria ananassa with GSSG or GSH, sensory tests of fruit (Example 10); conditions: 63 days
# Description: In the present example, Fragaria ananassa was cultivated with use of GSSG or GSH. Details of cultivation are described below.
# First, Fragaria ananassa seedlings were transplanted to a planter. In the planter, 6 L of vermiculite (ASAHI INDUSTRIES Co., LTD.), 3 L of KUREHA horticultural soil (KUREHA CORPORATION), and 3 L of vermiculite were layered as a lower, middle, and upper layers, respectively.
# During cultivation of Fragaria ananassa plants, 50 mL of 0.2 mM or 0.5 mM GSSG or 50 mL of 0.4 mM or 0.5 mM GSH (adjusted with 0.1N NaOH to be at pH7) was applied once a week at a root per plant. The plants were grown for 63 days without being subjected to bud removal. For comparison, a Fragaria ananassa plant was grown under the same condition, except that GSSG and GSH were not applied. To the plants of any condition, 3 g of Kumiai phosphorate ammonium nitrate potassium S-604 (Chisso Asahi Fertilizer Co., Ltd.) was applied as an additional fertilizer once in 2 weeks.
# Next, the fruit harvested was subjected to sensory tests of sugar content and the like. As a result, it was determined that fruit of the plant applied with GSSG increased in sugar content and decreased in acidity compared to that of the plant not applied with GSSG or GSH. Further, it was determined that the plant applied with GSSG increased in number of fruit. It was also determined that fruit of the plant applied with GSH increased in sugar content and acidity.
substance,measurement,setting,value
oxidized glutathione [GSSG],sugar content of fruit (Brix),[1],significantly increased; also recorded: extremely high sugar content
same,number of fruit,[2],increased
same,size of fruit,[2],increased
same,sugar content of fruit (sensory test),"[2]; harvest 90 days after sowing, vs no GSSG",increased
same,size of fruit,"[3]; 1 mM agent mixed with 1 mM GA3, applied to anthotaxy",increased
same,sugar content of fruit (sensory test),"[3]; 1 mM agent mixed with 1 mM gibberellin (GA3), applied to anthotaxy, compared to plant applied with only GA3",increased
same,sugar content,[3]; applied without GA3,increased
same,acidity of fruit (sensory test),[4],decreased
same,sugar content of fruit (sensory test),[4],increased
same,weight of fruit,[4],increased
same,number of fruit,[5]; 50 mL of 0.2 or 0.5 mM GSSG once a week at root,increased
same,acidity of fruit (sensory test),"[5]; 50 mL of 0.2 or 0.5 mM GSSG, or 0.4 or 0.5 mM GSH, once a week at root",decreased
same,sugar content of fruit (sensory test),"[5]; 50 mL of 0.2 or 0.5 mM GSSG, or 0.4 or 0.5 mM GSH, once a week at root, vs plant not applied",increased
